# Source: patent US6028198A (priority 1993, dated 2000)
# Assays:
# [1] = design: species or system Japanese white rabbit; conditions: rabbit, in vivo; for Equivalent dose (ED50), preventing adversive circling syndrome in rabbits: po
# [2] = design: species or system domestic cat; conditions: in vivo; for Equivalent dose (ED50), preventing motion sickness-like syndrome in cats: cat, po
# [3] = design: species or system human (sailor volunteers); conditions: in vivo, po
# [4] = design: species or system human (medical worker volunteers); conditions: in vivo, po
# [5] = design: species or system human (volunteers); conditions: in vivo
# [6] = design: species or system human (volunteers); conditions: in vivo; remark: listed apart in the source
# [7] = design: species or system human; conditions: in vivo
# [8] = mouse, in vivo
# [9] = mouse, in vivo; remark: listed apart in the source
# [10] = mouse, in vivo; remark: listed apart in the source
# [11] = in vivo
smiles,measurement,setting,value
OC(CCCN1CCCCC1)(c1ccccc1)c1ccccc1 [Diphenidol],"C/A (ratio of ED50 of diphenidol to that of the composition), adversive circling in rabbits",[1],> 115
same,"Equivalent dose (ED50), preventing adversive circling syndrome in rabbits",[1],> 50 mg/kg
same,"Equivalent dose (ED50), preventing motion sickness-like syndrome in cats",[2],20.18 mg/kg
same,"C/A (ratio of ED50 of diphenidol to that of the composition), motion sickness-like syndrome in cats",[2],91.3
same,"Ineffective rate, Ship",[3],10.0%
same,"Significantly effective rate, Ship",[3],66.7%
same,"Total effective rate, Ship",[3],76.7%
same,"Ineffective rate, Bus",[4],18.2%
same,"Significantly effective rate, Bus",[4],49.1%
same,"Total effective rate, Bus",[4],63.6%
same,Effect on changes of electronystagmogram,[5],obvious efficacy
same,"Nystagmus after rotation, postmedication",[5]; po,11.2 ± 6.2 degree/s
same,"Nystagmus during rotation, postmedication",[5]; po,6.9 ± 3.4 degree/s
same,Effect on changes of electrogastrogram of body of stomach and gastric antrum,[6],obvious efficacy
same,"Amplitude of electrogastrogram of antrum of stomach, postmedication",[6]; po,414 ± 265 μV
same,"Amplitude of electrogastrogram of body of stomach, postmedication",[6]; po,396 ± 227 μV
same,"Total effective, significantly effective and ineffective rates compared with placebo",[7],significantly different from those of the placebo group
same,"C/A (ratio of ED50), potentiating sodium pentobarbital in mice",[8],6.9
same,"C/A (ratio of ED50), inhibiting salivary secretion in mice",[9],13.6
same,"C/A (ratio of ED50), mydriatic effect in mice",[10],10.5
same,Incidence of somnolence,[11],18.7%
CN1[C@@H]2C[C@@H](OC(=O)[C@H](CO)c3ccccc3)C[C@H]1[C@@H]1O[C@@H]12 [Scopolamine],"B/A (ratio of ED50 of scopolamine to that of the composition), adversive circling in rabbits",[1],0.30
same,"Equivalent dose (ED50), preventing adversive circling syndrome in rabbits",[1],0.129 mg/kg
same,"Equivalent dose (ED50), preventing motion sickness-like syndrome in cats",[2],0.059 mg/kg
same,"B/A (ratio of ED50 of scopolamine to that of the composition), motion sickness-like syndrome in cats",[2],0.30
same,"B/A (ratio of ED50), potentiating sodium pentobarbital in mice",[8],0.24
same,"B/A (ratio of ED50), inhibiting salivary secretion in mice",[9],0.13
same,"B/A (ratio of ED50), mydriatic effect in mice",[10],0.072
